From doi:10.1101/2021.01.05.425432v2 (biorxiv, 2021) come the findings set out here.

Assay [1] has as its system H. pylori. Briefly: microbe, parasite or virus in culture. Conditions: Helicobacter pylori, 72 h, read-out: H. pylori (MIC) µg/ml.
Assay [2] deals with T1, H. pylori urease (HPU) (Helicobacter pylori, UniProt P69996). Description: tandem-well NH3 assay, Nessler's reagent, crude extract. Type of assay: biochemical.
Assay [3] has as its target T2, jack bean urease (JBU) (Canavalia ensiformis, UniProt P07374). Description: tandem-well NH3 assay, salicylic acid-hypochlorite. Type of assay: biochemical.
Assay [4] concerns H. pylori. Briefly: microbe, parasite or virus in culture. Conditions: Helicobacter pylori, 72 h, read-out: H. pylori (MIC) µM.
The subject of another assay is O. anthropi urease (OAU). In kind it is biochemical, Brucella anthropi.
In assay [5] the target is T1, H. pylori urease (HPU). Description: cell-based.
The target in assay [6] is T2, jack bean urease (JBU). Briefly: enzyme kinetics, tandem-well NH3 assay. In kind it is biochemical.
A further assay addresses T3, human CBS (hCBS) (Homo sapiens, UniProt P35520).
T3 sequence (P35520 1-551): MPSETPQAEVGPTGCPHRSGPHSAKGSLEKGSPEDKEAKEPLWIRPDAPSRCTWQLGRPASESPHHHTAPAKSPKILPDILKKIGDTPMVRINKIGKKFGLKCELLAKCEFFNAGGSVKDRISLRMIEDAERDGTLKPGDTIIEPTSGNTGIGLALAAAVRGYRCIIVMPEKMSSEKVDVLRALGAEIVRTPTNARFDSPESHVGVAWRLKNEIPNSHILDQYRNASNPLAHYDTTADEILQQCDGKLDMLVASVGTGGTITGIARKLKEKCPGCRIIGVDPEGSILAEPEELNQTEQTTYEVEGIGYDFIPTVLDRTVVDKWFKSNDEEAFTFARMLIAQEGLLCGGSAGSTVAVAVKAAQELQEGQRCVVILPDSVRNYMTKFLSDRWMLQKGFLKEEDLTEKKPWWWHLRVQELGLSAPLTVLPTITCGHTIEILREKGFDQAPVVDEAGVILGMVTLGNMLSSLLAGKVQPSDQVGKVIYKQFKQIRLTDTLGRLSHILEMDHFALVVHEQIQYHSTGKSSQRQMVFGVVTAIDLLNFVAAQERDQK
Description: tandem-well H2S assay. Type of assay: biochemical.

In a further assay the target is human CSE (hCSE) (Homo sapiens, UniProt P32929). Briefly: tandem-well H2S assay. In kind it is biochemical.
Assay [7] has as its target T2, jack bean urease (JBU). Briefly: enzyme kinetics, tandem-well NH3 assay. Type of assay: biochemical. To be noted: urea 12.5-200 mM; noncompetitive, covalent, allosteric (Cys313).
For assay [8], the target named is T2, jack bean urease (JBU). Description: SPR, Biacore T200, JBU immobilised on CM5 chip. Type of assay: binding.
The mark [9] stands for this setting: 25 mM urea, 100 μM NiCl2, 50 mM phosphate pH 7.4, 37 °C, 30 min preincubation.

≈ marks a conversion by molar mass, not a printed value. Where two headings read alike, the source gives them in different places.

T2 sequence (P07374 whole entry, looked up): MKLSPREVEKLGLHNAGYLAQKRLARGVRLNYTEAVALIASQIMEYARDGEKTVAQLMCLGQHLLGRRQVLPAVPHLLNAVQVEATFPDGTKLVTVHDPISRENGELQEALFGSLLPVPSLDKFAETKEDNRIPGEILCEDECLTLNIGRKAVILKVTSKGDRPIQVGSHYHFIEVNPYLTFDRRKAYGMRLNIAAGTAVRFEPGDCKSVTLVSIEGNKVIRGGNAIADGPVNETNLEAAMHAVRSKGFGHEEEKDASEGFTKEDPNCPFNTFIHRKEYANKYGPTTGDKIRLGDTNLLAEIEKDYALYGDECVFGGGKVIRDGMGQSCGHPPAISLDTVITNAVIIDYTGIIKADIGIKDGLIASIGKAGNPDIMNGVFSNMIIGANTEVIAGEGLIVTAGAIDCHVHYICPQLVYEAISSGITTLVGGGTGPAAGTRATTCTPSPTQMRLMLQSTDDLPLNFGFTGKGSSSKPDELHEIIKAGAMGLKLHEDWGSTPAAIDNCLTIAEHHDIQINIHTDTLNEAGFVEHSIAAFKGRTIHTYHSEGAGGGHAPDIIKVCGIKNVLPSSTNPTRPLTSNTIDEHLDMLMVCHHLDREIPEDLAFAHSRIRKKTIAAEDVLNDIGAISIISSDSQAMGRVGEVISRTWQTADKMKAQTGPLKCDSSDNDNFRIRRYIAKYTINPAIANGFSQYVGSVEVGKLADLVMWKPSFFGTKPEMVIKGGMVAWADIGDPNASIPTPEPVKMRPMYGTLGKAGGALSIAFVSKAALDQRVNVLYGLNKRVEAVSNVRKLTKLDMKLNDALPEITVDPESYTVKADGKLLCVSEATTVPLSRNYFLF
Sequence of human CSE (hCSE) (P32929 whole entry): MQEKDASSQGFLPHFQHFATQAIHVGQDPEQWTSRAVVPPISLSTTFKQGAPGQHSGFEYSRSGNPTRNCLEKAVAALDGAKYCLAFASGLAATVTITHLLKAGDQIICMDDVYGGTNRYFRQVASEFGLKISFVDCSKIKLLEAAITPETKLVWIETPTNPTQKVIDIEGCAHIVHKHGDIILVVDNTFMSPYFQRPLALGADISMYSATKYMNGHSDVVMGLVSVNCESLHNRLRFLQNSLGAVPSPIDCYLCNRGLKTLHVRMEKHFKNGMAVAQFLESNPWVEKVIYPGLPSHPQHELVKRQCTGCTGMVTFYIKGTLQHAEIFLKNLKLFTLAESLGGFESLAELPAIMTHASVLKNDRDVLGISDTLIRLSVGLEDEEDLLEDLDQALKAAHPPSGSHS
T1 sequence (P69996 whole entry): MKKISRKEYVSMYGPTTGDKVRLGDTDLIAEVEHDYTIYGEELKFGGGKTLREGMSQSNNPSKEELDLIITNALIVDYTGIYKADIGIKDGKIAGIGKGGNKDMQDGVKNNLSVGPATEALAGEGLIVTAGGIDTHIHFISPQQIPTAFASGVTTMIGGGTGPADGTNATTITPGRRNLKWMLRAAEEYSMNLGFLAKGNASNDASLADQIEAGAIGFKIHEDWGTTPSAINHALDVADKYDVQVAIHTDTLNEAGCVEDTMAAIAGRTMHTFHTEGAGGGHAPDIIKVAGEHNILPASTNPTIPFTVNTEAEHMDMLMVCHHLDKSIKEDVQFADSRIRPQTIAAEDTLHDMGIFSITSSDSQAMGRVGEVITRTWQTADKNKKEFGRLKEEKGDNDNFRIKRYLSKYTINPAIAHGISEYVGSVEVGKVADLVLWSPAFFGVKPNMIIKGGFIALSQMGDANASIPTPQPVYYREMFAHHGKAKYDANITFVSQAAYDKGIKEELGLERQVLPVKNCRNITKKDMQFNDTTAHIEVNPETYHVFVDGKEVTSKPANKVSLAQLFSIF
T1 sequence (P14916 whole entry partner): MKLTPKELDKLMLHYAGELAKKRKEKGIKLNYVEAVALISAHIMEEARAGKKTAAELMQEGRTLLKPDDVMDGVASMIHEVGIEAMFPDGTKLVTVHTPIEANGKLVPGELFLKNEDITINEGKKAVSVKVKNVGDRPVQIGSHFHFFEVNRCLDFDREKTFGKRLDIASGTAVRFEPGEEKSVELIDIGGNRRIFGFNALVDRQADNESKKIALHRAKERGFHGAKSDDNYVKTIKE

`O=C1c2ccccc2[Se](=O)N1c1ccccc1` (stereo not shown) [Ebselen oxide]: the results for the MIC with H. pylori [1] and in the assay on H. pylori [4] were 4 µg/mL (≈ 13.8 µM) and 12.5 µM (≈ 3.63 µg/mL), respectively. Moreover, the IC50 against H. pylori urease (HPU) [2] is 1.5 ± 0.2 µM; at jack bean urease (JBU) [3], 0.4 ± 0.005 µM; in the assay with O. anthropi urease (OAU) it was 3.3 ± 0.1 µM; at H. pylori urease (HPU) [5] it was 23.2 ± 1.1 µM.
As for `Cc1ncc([N+](=O)[O-])n1CCO` [Metronidazole], the MIC in the assay on H. pylori [1] was over 512 µg/mL; in the assay on H. pylori [4] it was over 3000 µM.
On to `CCS(=O)(=O)CCn1c([N+](=O)[O-])cnc1C` [Tinidazole], for which the MIC was over 512 µg/mL with H. pylori [1] and over 2000 µM in the assay with H. pylori [4].
`CN(C)Cc1c(C(=O)NCCOc2ccc(C(=O)NO)cc2)oc2ccccc12` [abexinostat]: the results for the IC50 against H. pylori urease (HPU) [2] and on jack bean urease (JBU) [3] were 1.3 ± 0.2 µM and 1.4 ± 0.3 µM, respectively.
Regarding `CC(=O)NO` [acetohydroxamic acid], in the assay on H. pylori [1], the MIC was over 16 µg/mL. On jack bean urease (JBU) [6], the affinity, expressed as Ki, was 2.1 ± 0.8 µM. The IC50 on H. pylori urease (HPU) [2] is 25.9 ± 1.2 µM; at human CBS (hCBS), over 200 µM; against jack bean urease (JBU) [3] it was 162 ± 13.4 µM; against human CSE (hCSE), over 200 µM; in the assay with O. anthropi urease (OAU), 2.8 ± 0.9 µM.
Take `O=C(/C=C/c1cccc(S(=O)(=O)Nc2ccccc2)c1)NO` [belinostat]: the concentration for half-maximal inhibition (IC50) against H. pylori urease (HPU) [2] was 3.2 ± 0.2 µM; on jack bean urease (JBU) [3], 4.7 ± 0.5 µM.
Regarding `COc1ccc2c(=O)n(-c3ccccc3)[se]c2c1` [compound 1, 2-Phenyl-6-methoxybenzoisoselen-3-one], the 50% inhibitory concentration (IC50) against H. pylori urease (HPU) [2] (setting [9]) was 2 ± 0.9 µM; against jack bean urease (JBU) [3] (setting [9]), 0.3 ± 0.007 µM; in the assay with O. anthropi urease (OAU), 7.5 ± 0.6 µM.
Consider `COc1ccc2c(=O)n(-c3ccccc3)[se]c2c1` [compound 1], for which the MIC with H. pylori [1] turned out to be 2 µg/mL (≈ 6.57 µM); in the assay with H. pylori [4], 6.25 µM (≈ 1.9 µg/mL).
For the compound `O=c1[nH][se]c2ccccc12` [compound 4, Benzisoselenol-3-one], the half-maximal inhibitory concentration (IC50) worked out at 1.1 ± 0.08 µM at H. pylori urease (HPU) [2], 0.8 ± 0.008 µM against jack bean urease (JBU) [3] and 2.2 ± 0.1 µM in the assay on O. anthropi urease (OAU).
In the case of `O=c1[nH][se]c2ccccc12` [compound 4], the MIC in the assay on H. pylori [1] worked out at 2 µg/mL (≈ 10.1 µM); in the assay with H. pylori [4], 12.5 µM (≈ 2.48 µg/mL). In addition, the midpoint of inhibition on H. pylori urease (HPU) [5], the IC50, lay at 18.5 ± 1.2 µM.
As for `CCCn1[se]c2ccccc2c1=O` [compound 5, 2-Propyl-benzisoselenol-3-one], the IC50 is over 10 µM on H. pylori urease (HPU) [2], 1.4 ± 0.03 µM at jack bean urease (JBU) [3] and 5.3 ± 0.9 µM in the assay with O. anthropi urease (OAU).
Regarding `CSn1[se]c2ccccc2c1=O` [compound 6, 2-Methylthio-benzisoseleno-3-one], the concentration for half-maximal inhibition (IC50) on H. pylori urease (HPU) [2] (setting [9]) worked out at 1.3 ± 0.4 µM; on jack bean urease (JBU) [3] (setting [9]), 0.3 ± 0.04 µM; in the assay with O. anthropi urease (OAU), 1.7 ± 0.1 µM.
With `c1ccc(C[Se][Se]Cc2ccccc2)cc1` [dibenzyl diselenide], the MIC was over 64 µg/mL in the assay with H. pylori [1] and over 200 µM with H. pylori [4].
As to `CCN(CC)C(=S)SSC(=S)N(CC)CC` [disulfiram], the MIC in the assay with H. pylori [1] is 4 µg/mL (≈ 13.5 µM); in the assay with H. pylori [4] it was 12.5 µM (≈ 3.71 µg/mL). Moreover, the IC50 at H. pylori urease (HPU) [2] was 8.9 ± 1.5 µM; on human CBS (hCBS) it was over 200 µM; on jack bean urease (JBU) [3], 38.9 ± 2.7 µM; against human CSE (hCSE), over 200 µM; in the assay with O. anthropi urease (OAU) it was 35 ± 0.1 µM; on H. pylori urease (HPU) [5], 36.3 ± 1 µM.
In the case of `O=c1c2ccccc2[se]n1-c1ccccc1` [ebselen], the MIC with H. pylori [1] was determined as 4 µg/mL (≈ 14.6 µM); in the assay on H. pylori [4] it was 12.5 µM (≈ 3.43 µg/mL). Besides, the IC50 against H. pylori urease (HPU) [2] is 2.8 ± 0.5 µM; against human CBS (hCBS) it was over 200 µM; on jack bean urease (JBU) [3], 0.4 ± 0.07 µM; on human CSE (hCSE), 44.3 ± 1.3 µM; in the assay with O. anthropi urease (OAU) it was 3 ± 1 µM; against H. pylori urease (HPU) [5] it was 5.7 ± 1.3 µM. Also, the αKi at jack bean urease (JBU) [7] was 0.8 ± 0.2 µM. The compound also registered a Kd on jack bean urease (JBU) [8] of 0.089 ± 0.005 µM.
Take `NO` [hydroxylamine]: the IC50 against H. pylori urease (HPU) [2] and at jack bean urease (JBU) [3] was over 20 µM throughout.
For the compound `CNC(=O)[C@H](Cc1c[nH]c2ccccc12)NC(=O)[C@@H](CC(=O)NO)CC(C)C` [ilomastat], the IC50 on H. pylori urease (HPU) [2] and against jack bean urease (JBU) [3] was over 20 µM throughout.
Take `Cc1[nH]c2ccccc2c1CCNCc1ccc(/C=C/C(=O)NO)cc1` [panobinostat]: the Ki on jack bean urease (JBU) [6] was determined as 0.02 ± 0.01 µM. The half-maximal inhibitory concentration (IC50) against H. pylori urease (HPU) [2] is 0.1 ± 0.01 µM; against human CBS (hCBS), over 200 µM; at jack bean urease (JBU) [3] it was 0.2 ± 0.006 µM; against human CSE (hCSE), over 200 µM; in the assay on O. anthropi urease (OAU), 0.07 ± 0.006 µM. On jack bean urease (JBU) [8], this compound yielded a dissociation constant Kd of 8.9 ± 0.4 µM.
As to `O=C(CCCCCCNC(=O)c1cnc(N(c2ccccc2)c2ccccc2)nc1)NO` [ricolinostat], the IC50 on H. pylori urease (HPU) [2] and against jack bean urease (JBU) [3] was over 20 µM throughout.
Turning to `O=C(CCCCCCC(=O)Nc1ccccc1)NO` [vorinostat], the results for the IC50 against H. pylori urease (HPU) [2] and against jack bean urease (JBU) [3] were 14 ± 3.9 µM and 4.1 ± 1.9 µM, respectively.

Usually IC50 stands for the point on the concentration scale where inhibition reaches its midpoint. High values mean a need for much substance, low ones inhibition by little substance. As usually defined, the Ki is a measure of affinity in units of concentration, obtained from inhibition or displacement. As a reminder, the Kd is the equilibrium constant for the complex coming apart. Low readings indicate tighter binding, high ones weaker binding.
